Measured values taken from patent publication US20220362365A1, “IMPROVED COMPOSITIONS AND METHODS FOR SHARED NEO-EPITOPE VACCINES” (Epivax Therapeutics Inc., priority 2019, published 2022).

Key:
CT26 tumor cells = test: CT26 tumor growth / survival after vaccination (Example 1); type: in vivo; details: CT26 tumor-bearing Balb/c mice
[1] = test system: CT26 murine colon tumor cells; test: Anti-tumor activity with or without poly-ICLC, CT26 murine tumor model (Example 13); type: in vivo; details: CT26 tumor-bearing BALB/c mice, n=10, day 25 post-tumor implantation, relative to PBS or poly-ICLC alone
Protocol: The goal of this experiment was to determine the requirement for the inclusion of the adjuvant poly-ICLC in a peptide vaccine containing ANCER™ selected neoantigens. For this experiment, female BALB/c mice were implanted subcutaneously with 3×10^5 CT26 murine colon tumor cells. Tumor growth was monitored by caliper measurement and mice were sacrificed 45 days after tumor implantation or when tumor volumes reached 2000 mm^3, whichever came first.
Four vaccine groups were tested (n=10 mice/group): • Group 1=PBS only • Group 2=PBS with 50 μg poly-ICLC • Group 3=20 ANCER™ selected (uncapped) peptides with 50 μg poly-ICLC • Group 4=20 ANCER™ selected (uncapped) peptides only
Peptide vaccines were comprised of 20 different ANCER™ selected peptides at a concentration of 5 μg/peptide for a total dose of 100 μg peptide per immunization. Mice were immunized subcutaneously in the opposite flank from tumor implantation twice per week for three weeks, starting at day 4 post-tumor implantation.

Which results are given for poly-ICLC?
tumor burden compared to Group 1 (mice immunized with PBS) (CT26 tumor cells; 50 μg sc days 5, 8, 12, 15, 19, 22, 26): no reduction in tumor burden; mice surviving past day 28 (CT26 tumor cells; N=10): Less than 50%; mice surviving the 45 days of the experiment (in words) (CT26 tumor cells; N=10): None; mice reaching a tumor volume of at least 2,000 mm^3 (endpoint) by day 28 (CT26 tumor cells; N=10, day 28, PBS group 70%): 60%; control of tumor growth [1]: no difference in tumor growth kinetics
